The nature of the series: Solubility in acetonitrile, determined by 1H NMR spectroscopy. Format: physicochemical. As to the method: The solubility of each of such mixtures was determined according to the following procedure: acetonitrile was added to the vials containing the samples in aliquots ranging from 0.1 to 1 mL; after every aliquot of solvent was added, each sample was shaken, sonicated, and lightly warmed up with a heat gun (about 40° C.); if the suspended solid persisted, another aliquot was added, and the process repeated until a clear solution was obtained. The warm solution was left to cool down to room temperature: if any solid formed, more solvent was added, and the process repeated until the solution remained clear indefinitely. The solubility was then determined using ^1H NMR spectroscopy. […] The results are summarized in Table 1: in both the cases examined, the solubility of EPT increased substantially when mixed with MEPT.

The mark [1] stands for this setting: acetonitrile, RPT-TFSI and the corresponding binary blend.
Setting [2] is: organic solvent or mixture, thermodynamic from solid, pure compound in acetonitrile, room temperature, read-out: Solubility of the single component.
Setting [3] is: pure compound in acetonitrile, room temperature.

In brackets after ≈: the same amount, converted by molar mass. Where two headings read alike, the source gives them in different places.

`CN1c2ccccc2[S+]c2ccccc21.O=S(=O)([N-]S(=O)(=O)C(F)(F)F)C(F)(F)F` [MPT-TFSI, MPT-bis(trifluoromethanesulfonyl)imide] gave a solubility under setting [1] of 1500 mM. Take `COCCN1c2ccccc2Sc2ccccc21` [MEPT, N-(2-methoxyethyl)phenothiazine]: where the note is “acetonitrile”, the Miscibility in acetonitrile result was “miscible in acetonitrile in all ratios”. Regarding `CCN1c2ccccc2Sc2ccccc21` [EPT, N-ethylphenothiazine], the solubility under setting [2] was 110 mM (≈ 25 mg/mL). With `c1ccc(N2c3ccccc3Sc3ccccc32)cc1` [PhPT, N-phenylphenothiazine], the solubility under setting [2] came to 140 mM (≈ 38.6 mg/mL). `CCN1c2ccccc2[S+]c2ccccc21.O=S(=O)([N-]S(=O)(=O)C(F)(F)F)C(F)(F)F` [EPT-TFSI, EPT-bis(trifluoromethanesulfonyl)imide] had a solubility under setting [1] of 370 mM.

On to `CN1c2ccccc2Sc2ccccc21` [MPT, N-methylphenothiazine], for which, under setting [2], the solubility came out at 240 mM (≈ 51.2 mg/mL). For the compound `CCN1c2ccccc2[S+]c2ccccc21.F[B-](F)(F)F` [EPT-BF4, EPT-tetrafluoroborate], the “Solubility of the single component” value under setting [3] worked out at 330 mM. The compound `O=S(=O)([N-]S(=O)(=O)C(F)(F)F)C(F)(F)F.c1ccc(N2c3ccccc3[S+]c3ccccc32)cc1` [PhPT-TFSI, PhPT-bis(trifluoromethanesulfonyl)imide] registered a solubility under setting [1] of 1640 mM.

Turning to `COCCN1c2ccccc2[S+]c2ccccc21.F[B-](F)(F)F` [MEPT-BF4, MEPT-tetrafluoroborate], under setting [3], the “Solubility of the single component” value was 310 mM.

Source of the values: patent publication US11217811B2, “Unique redox-active phenothiazine combinations with depressed melting points for increased solubility and method of use in energy storage and in redox flow batteries” (University of Kentucky Research Foundation, priority 2019, dated 2022).
